Measured values from paper PMC10683023, “Targeting Glial Cells by Organic Anion-Transporting Polypeptide 1C1 (OATP1C1)-Utilizing L-Thyroxine-Derived Prodrugs” (Journal of Medicinal Chemistry, 2023).

Assays:
[1] = system: mouse primary astrocytes; assay: Concentration-dependent cellular uptake into mouse primary astrocytes; assay type: cell-based; conditions: 5–400 μM
Procedure: The mouse primary astrocytes were isolated from neonatal pups (P0-2) of wild-type mice (C57BL/6JOlaHsd) as previously described, in compliance with the European Commission Directive 2010/63/EU and approved by the Institutional Animal Care and Use Committee of the University of Eastern Finland (Animal Usage Plan numbers: EKS-006-2019).[37] Neonatal pups were decapitated, and their brains were collected in an ice-cold HBSS buffer. After tissue dissociation and washing, cells were plated on poly-L-lysine-coated flasks and cultured in DMEM supplemented with FBS, L-glutamine, and penicillin/streptomycin (50 μg/mL) for 24 h. Debris and dead cells were removed by DPBS rinsing. After 7 days, microglial cells were removed, and the remaining astrocytic monolayer was collected by trypsinization using 0.05% trypsin-ethylenediaminetetraacetic acid (EDTA) (Gibco), pelleted, and stored at −80 °C for subsequent analysis. For the cell uptake experiments, the astrocytes were seeded on 24-well plates with a density of 10^4 cells/well 3 days before the experiments.
(§1) After removal of the culture medium, U-87MG human glioma cells and mouse primary astrocytes were carefully washed with prewarmed Hank’s balanced salt solution (HBSS) containing 125.0 mM NaCl (or choline chloride in Na^+ free conditions), 4.8 mM KCl, 1.2 mM MgSO4, 1.2 mM KH2PO4, 1.3 mM CaCl2, 5.6 mM glucose, and 25.0 mM 4-(2-hydroxyethyl)piperazine-1-ethanesulfonic acid (HEPES) with the pH adjusted to either 7.4 or pH 8.5 with 1 M NaOH (or KOH in sodium-free conditions). In the experiments at lower pH (4.5–6.5), 25.0 mM HEPES was replaced by 2-(N-morpholino) ethanesulfonic acid (MES), and the pH was adjusted to 4.5, 5.5, and 6.5 by 1.0 M NaOH. Preincubation was done with 500 μL of prewarmed HBSS at 37 °C for 10 min before adding the substrate for the uptake experiments. The functionality of OATP1C1 in human glioma U-87MG cells was studied with a known substrate (L-thyroxine, T4) and of oatp1a4, 1a5, and 1a6 in mouse primary astrocytes with [6,7-^3H(N)]-estrone-3-sulfate (ES) by incubating the uptake solution (250 μL in HBSS) consisting of 5–400 μM of the substrate at 37 °C for 30 min. After incubation, the uptake was stopped by adding 500 μL of ice-cold HBSS, and the cells were washed two times with ice-cold HBSS (2 × 500 μL). The cells were then lysed with 500 μL of 0.1 M NaOH (60 min), the lysate was neutralized, and the protein was precipitated with acidic acetonitrile (ACN with 4.8% formic acid). The supernatants were analyzed by the high-performance liquid chromatography (HPLC) methods described below (T4) or by using a liquid scintillation counter (MicroBeta2 counter, PerkinElmer, Waltham, MA) (ES). The concentrations of T4 and ES were calculated from the spiked standard curve and normalized with the protein concentrations. The protein concentrations on each plate were determined as a mean of three samples by Bio-Rad Protein Assay, based on the Bradford dye-binding method, using bovine serum albumin (BSA) as a standard protein and measuring the absorbance (595 nm) by a multiplate reader (EnVision, PerkinElmer, Inc., Waltham, MA). The OATP-mediated uptake was confirmed by changing the pH of the uptake buffer in the absence of sodium ions, and in the case of OATP1C1 in human U-87MG cells, the uptake of T4 (100 μM) was studied in the presence of competing OATP1C1-ligands, diclofenac and flufenamic acid (100 μM), and in the case of oatp1a4/1a5/1a6 in mouse primary astrocytes, the uptake of ES (100 μM) was studied in the presence of competing OATO1A2-ligand, naringin (100 μM).
Cellular uptake of prodrugs 1–8 was studied as described for L-thyroxine above by adding compounds at a concentration of 5–400 μM in prewarmed HBSS buffer (250 μL) on the cell layer and incubating at 37 °C for 30 min (uptake was linear with all compounds up to 30 min). Subsequently, the cells were washed three times with ice-cold HBSS and lysed with 500 μL of 0.1 M NaOH (60 min). […]

[2] = system: human U-87MG glioma cells; assay: Concentration-dependent cellular uptake into human U-87MG glioma cells; assay type: cell-based; conditions: 5–400 μM, 30 min, 37 °C
Procedure: U-87MG (ATCC, HTB-14, unknown origin) was purchased from Lonza (Basel, Switzerland). The cells were cultured in standard conditions (37 °C, 5% CO2) using Dulbecco’s modified Eagle’s medium (DMEM) supplemented with L-glutamine (2.0 mM), heat-inactivated fetal bovine serum (FBS) (10%), penicillin (50 U/mL), and streptomycin (50 μg/mL). U-87MG cells (passages 8–25) were seeded at a density of 1 × 10^5 cells/well onto 24-well plates and used for the uptake experiments 1 day after seeding. All of the studies were carried out as three biological replicates from the same cell passage.
as §1
Cellular uptake of prodrugs 1–8 was studied as described for L-thyroxine above by adding compounds at a concentration of 5–400 μM in prewarmed HBSS buffer (250 μL) on the cell layer and incubating at 37 °C for 30 min (uptake was linear with all compounds up to 30 min). Subsequently, the cells were washed three times with ice-cold HBSS and lysed with 500 μL of 0.1 M NaOH (60 min). The lysate was neutralized; the proteins were precipitated with acidic ACN (containing 4.8% formic acid), and the supernatants were analyzed by the (HPLC) methods described below. The concentrations of each prodrug normalized to protein concentration were calculated from the standard curve prepared by spiking known concentrations of compounds into ACN-precipitated cell lysate. […]

[3] = Enzymatic bioconversion in mouse primary astrocyte–microglia homogenate; assay type: in vitro ADME; conditions: after 5 h incubation, 100 μM prodrug, 37 °C, mean ± SD, n = 3
Procedure: (§2) The rates of bioactivation of the prodrugs 1–8 in mouse and human liver S9 fractions, as well as in mouse primary astrocyte–microglia homogenate, were determined at +37 °C. The incubation mixtures were prepared by mixing liver S9 subcellular fraction or brain cell homogenate (final protein concentration 1.0 mg/mL) with isotonic Tris–HCl buffer (pH 7.4) and 10 mM prodrug stock solution in DMSO (the initial concentration of prodrugs was 100 μM and the DMSO concentration was […]). The mixture was incubated for 5 h, and the samples ([…]) were withdrawn at appropriate intervals. The enzymatic reaction was terminated by the addition of ice-cold acetonitrile ([…]), and the samples were centrifuged for 5 min at 12 000 rpm at room temperature and kept on ice until the supernatants were analyzed by the HPLC method described below. In blank reactions, the S9 fractions were replaced with the same volume of buffer. The pseudo-first-order half-lives (t1/2) for the rates of bioconversion of the prodrugs were calculated from the slope of the linear portion of the plotted logarithm of the remaining prodrug concentration versus time. The rates of bioactivation of prodrugs 1–8 in human plasma and mouse serum were determined at 37 °C as above by adding 10 mM stock solution of the prodrug to plasma/serum in a ratio of 1:10 and analyzed similarly to the samples from S9 fractions.
(§3) The amount of prodrug 1–8 was determined by the HPLC system, which consisted of an Agilent 1100 binary pump (Agilent Technologies Inc., Wilmington, DE), an 1100 micro vacuum degasser, an HP 1050 Autosampler, and an HP 1050 variable wavelength detector, operated at 230–240 nm. The chromatographic separations were achieved on an Agilent Zorbax SB-C18 analytical column (4.4 mm × 150 mm, 5 μm) (Agilent Technologies Inc., Wilmington, DE) by using isocratic elution of water containing 0.1% formic acid (pH ca. 3.0) and acetonitrile containing 0.1% formic acid with ratios of 50:50, 30:70, 40:60, 50:50, 50:50, 40:60, 40:60, and 30:70 (v/v), respectively, for prodrug 1–8. […] The lower limit of quantification for prodrugs 1–8 was 0.20 μM. These HPLC methods were also accurate, precise, and selective over the range of 0.5–20 μM.

[4] = Enzymatic bioconversion in mouse serum; assay type: in vitro ADME; conditions: after 5 h incubation, 37 °C, mean ± SD, n = 3
Procedure: as §2, §3

[5] = Enzymatic bioconversion in human plasma; assay type: in vitro ADME; conditions: after 5 h incubation, 37 °C, mean ± SD, n = 3
Procedure: as §2, §3

[6] = Enzymatic bioconversion in mouse liver S9 fraction; assay type: in vitro ADME; conditions: after 5 h incubation, 100 μM prodrug, 37 °C, mean ± SD, n = 3
Procedure: as §2, §3

[7] = Enzymatic bioconversion in human liver S9 fraction; assay type: in vitro ADME; conditions: after 5 h incubation, 100 μM prodrug, 37 °C, mean ± SD, n = 3
Procedure: as §2, §3

SMILES	Km ([1]; 30 min, 37 °C)	Vmax, cellular uptake, astrocytes ([1]; 30 min, 37 °C)	Km [2]	Vmax, cellular uptake, U-87MG [2]	Enzymatic stability, remaining percentage, mouse brain cell homogenate [3]	Enzymatic stability, remaining percentage, mouse serum [4]	Enzymatic stability, remaining percentage, human plasma [5]	Enzymatic stability, remaining percentage, mouse liver S9 [6]	Enzymatic stability, remaining percentage, human liver S9 [7]	Km ([2]; listed as PD1)	Vmax, ES uptake into mouse primary astrocytes ([1]; Figure 2B)
N[C@@H](Cc1cc(I)c(Oc2cc(I)c(O)c(I)c2)c(I)c1)C(=O)O [L-Thyroxine T4, L-thyroxine]	1250 ± 230 µM	9.7 ± 6.1 nmol/min/mg	111 ± 32 µM	8.86 ± 1.33 nmol/min/mg	–	–	–	–	–	–	–
CC(C(=O)Oc1c(I)cc(C[C@H](N)C(=O)O)cc1I)c1cccc(C(=O)c2ccccc2)c1 (mixture of isomers) [Prodrug 1, (2S)-2-Amino-3-(4-((2-(3-benzoylphenyl)propanoyl)oxy)-3,5-diiodophenyl)propanoic acid]	–	–	174 µM	–	85.76 ± 2.74%	94.32 ± 1.27%	92.01 ± 5.02%	74.30 ± 7.50%	78.13 ± 2.17%	~174 µM	–
C[C@]12CC[C@@H]3c4ccc(OS(=O)(=O)O)cc4CC[C@H]3[C@@H]1CCC2=O [ES, [6,7-^3H(N)]-estrone-3-sulfate, reference compound]	703 ± 227 µM	–	–	–	–	–	–	–	–	–	0.22 ± 0.05 pmol/min/mg
